# Source: ChEMBL document CHEMBL1123898, “Antitumor imidazotetrazines. 14. Synthesis and antitumor activity of 6- and 8-substituted imidazo[5,1-d]-1,2,3,5-tetrazinones and 8-substituted pyrazolo[5,1-d]-1,2,3,5-tetrazinones” (1987)
# Assays:
# [1] = Antitumor activity was assessed against L1210 tumors in B6D2F1 mouse by inoculation of 10e5 tumor cells through intravenous route and mean death of animals (treated/control) was reported at 200 mg/kg peroral dose; type: functional; details: route oral
# [2] = (§1) Antitumor activity was assessed against L1210 tumors in B6D2F1 mouse by inoculation of 10e5 tumor cells through intravenous route and mean death of animals (treated/control) was reported at 50 mg/kg peroral dose; type: functional; details: route oral
# [3] = Antitumor activity was assessed against L1210 tumors in B6D2F1 mouse by inoculation of 10e5 tumor cells through intravenous route and mean death of animals (treated/control) was reported at 100 mg/kg peroral dose; type: functional; details: route oral
# L1210 [4] = assay: Antitumor activity was assessed against L1210 tumors in B6D2F1 mouse by inoculation of 10e5 tumor cells through intravenous route and mean death of animals (treated/control) was reported at 40 mg/kg peroral dose; type: functional; details: route oral
# L1210 [5] = assay: Antitumor activity was assessed against L1210 tumors in B6D2F1 mouse by inoculation of 10e5 tumor cells through intravenous route and mean death of animals (treated/control) was reported at 80 mg/kg peroral dose; type: functional; details: route oral
# L1210 [6] = assay: Antitumor activity was assessed against L1210 tumors in B6D2F1 mouse by inoculation of 10e5 tumor cells through intravenous route and mean death of animals (treated/control) was reported at 160 mg/kg peroral dose; type: functional; details: route oral
# L1210 [7] = assay: as §1; type: functional; details: route oral
# [8] = Antitumor activity was assessed against TLX5 tumors in CBA/CA mouse by inoculation of 2 x 10e5 tumor cells through subcutaneous route and mean death of animals (treated/control) was reported at 20 mg/kg dose; type: functional
# L1210 [9] = assay: Antitumor activity was assessed against L1210 tumors in B6D2F1 mouse by inoculation of 10e5 tumor cells through intravenous route and mean death of animals (treated/control) was reported at 20 mg/kg peroral dose; type: functional; details: route oral
# [10] = Antitumor activity was assessed against TLX5 tumors in CBA/CA mouse by inoculation of 2 x 10e5 tumor cells through subcutaneous route and mean death of animals (treated/control) was reported at 40 mg/kg dose; type: functional
# [11] = Antitumor activity was assessed against TLX5 tumors in CBA/CA mouse by inoculation of 2 x 10e5 tumor cells through subcutaneous route and mean death of animals (treated/control) was reported at 80 mg/kg dose; type: functional
# [12] = Antitumor activity was assessed against TLX5 tumors in CBA/CA mouse by inoculation of 2 x 10e5 tumor cells through sc route and number of Survivors to duration was reported at 20 mg/kg ip dose; 1/5; type: functional; details: route subcutaneous
# L1210 [13] = assay: Antitumor activity was assessed against L1210 tumors in B6D2F1 mouse by inoculation of 10e5 tumor cells through intravenous route and mean death of animals (treated/control) was reported at 10 mg/kg peroral dose; type: functional; details: route oral
# L1210 [14] = assay: Antitumor activity was assessed against L1210 tumors in B6D2F1 mouse by inoculation of 10e5 tumor cells through iv route and number of Survivors to duration was reported at 40 mg/kg peroral dose; 2/7; type: functional; details: route oral
# L1210 [15] = assay: Antitumor activity was assessed against L1210 tumors in B6D2F1 mouse by inoculation of 10e5 tumor cells through intraperitoneal route and number of Survivors to duration was reported at 20 mg/kg peroral dose; 10/10; details: route oral
# [16] = Antitumor activity was assessed against TLX5 tumors in CBA/CA mouse by inoculation of 2 x 10e5 tumor cells through subcutaneous route and number of Survivors to duration was reported at 20 mg/kg iv dose; 1/5; type: functional
# L1210 [17] = assay: Antitumor activity was assessed against L1210 tumors in B6D2F1 mouse by inoculation of 10e5 tumor cells through intravenous route and number of Survivors to duration was reported at 10 mg/kg peroral dose; 2/10; type: functional; details: route oral
# [18] = Antitumor activity was assessed against TLX5 tumors in CBA/CA mouse by inoculation of 2 x 10e5 tumor cells through subcutaneous route and mean death of animals (treated/control) was reported at 5 mg/kg dose; type: functional
# [19] = Antitumor activity was assessed against TLX5 tumors in CBA/CA mouse by inoculation of 2 x 10e5 tumor cells through subcutaneous route and mean death of animals (treated/control) was reported at 10 mg/kg iv dose; type: functional
# [20] = Antitumor activity was assessed against TLX5 tumors in CBA/CA mouse by inoculation of 2 x 10e5 tumor cells through subcutaneous route and mean death of animals (treated/control) was reported at 40 mg/kg iv dose; type: functional
# L1210 [21] = assay: Antitumor activity was assessed against L1210 tumors in B6D2F1 mouse by inoculation of 10e5 tumor cells through ip route and mean death of animals (treated/control) was reported at 40 mg/kg peroral dose; type: functional; details: route oral
# [22] = Antitumor activity was assessed against TLX5 tumors in CBA/CA mouse by inoculation of 2 x 10e5 tumor cells through subcutaneous route and number of Survivors to duration was reported at 40 mg/kg iv dose; 5/5; type: functional
# L1210 [23] = assay: Antitumor activity was assessed against L1210 tumors in B6D2F1 mouse by inoculation of 10e5 tumor cells through ip route and mean death of animals (treated/control) was reported at 20 mg/kg peroral dose; type: functional; details: route oral
# L1210 [24] = assay: Antitumor activity was assessed against L1210 tumors in B6D2F1 mouse by inoculation of 10e5 tumor cells through ip route and mean death of animals (treated/control) was reported at 10 mg/kg peroral dose; type: functional; details: route oral
# L1210 [25] = assay: Antitumor activity was assessed against L1210 tumors in B6D2F1 mouse by inoculation of 10e5 tumor cells through intraperitoneal route and number of Survivors to duration was reported at 40 mg/kg peroral dose; 2/10; details: route oral
# [26] = Antitumor activity was assessed against TLX5 tumors in CBA/CA mouse by inoculation of 2 x 10e5 tumor cells through subcutaneous route and mean death of animals (treated/control) was reported at 80 mg/kg iv dose; type: functional
# [27] = Antitumor activity was assessed against TLX5 tumors in CBA/CA mouse by inoculation of 2 x 10e5 tumor cells through sc route and mean death of animals (treated/control) was reported at 40 mg/kg dose; type: functional; details: route subcutaneous
# [28] = Antitumor activity was assessed against TLX5 tumors in CBA/CA mouse by inoculation of 2 x 10e5 tumor cells through sc route and mean death of animals (treated/control) was reported at 320 mg/kg dose; type: functional; details: route subcutaneous
# [29] = Antitumor activity was assessed against TLX5 tumors in CBA/CA mouse by inoculation of 2 x 10e5 tumor cells through sc route and mean death of animals (treated/control) was reported at 20 mg/kg dose; type: functional; details: route subcutaneous
# L1210 [30] = assay: Antitumor activity was assessed against L1210 tumors in B6D2F1 mouse by inoculation of 10e5 tumor cells through iv route and mean death of animals (treated/control) was reported at 10 mg/kg po dose; type: functional
# L1210 [31] = assay: Antitumor activity was assessed against L1210 tumors in B6D2F1 mouse by inoculation of 10e5 tumor cells through iv route and mean death of animals (treated/control) was reported at 80 mg/kg po dose; type: functional
# L1210 [32] = assay: Antitumor activity was assessed against L1210 tumors in B6D2F1 mouse by inoculation of 10e5 tumor cells through iv route and mean death of animals (treated/control) was reported at 160 mg/kg po dose; type: functional
# [33] = Antitumor activity was assessed against TLX5 tumors in CBA/CA mouse by inoculation of 2 x 10e5 tumor cells through sc route and number of survivors to duration was reported at 40 mg/kg ip dose; 2/5; type: functional; details: route subcutaneous
# [34] = Antitumor activity was assessed against TLX5 tumors in CBA/CA mouse by inoculation of 2 x 10e5 tumor cells through sc route and number of survivors to duration was reported at 80 mg/kg ip dose; 5/5; type: functional; details: route subcutaneous
# L1210 [35] = assay: Antitumor activity was assessed against L1210 tumors in B6D2F1 mouse by inoculation of 10e5 tumor cells through iv route and mean death of animals (treated/control) was reported at 40 mg/kg po dose; type: functional
# [36] = Antitumor activity was assessed against TLX5 tumors in CBA/CA mouse by inoculation of 2 x 10e5 tumor cells through sc route and mean death of animals (treated/control) was reported at 80 mg/kg dose; type: functional; details: route subcutaneous
# [37] = Antitumor activity was assessed against TLX5 tumors in CBA/CA mouse by inoculation of 2 x 10e5 tumor cells through sc route and mean death of animals (treated/control) was reported at 160 mg/kg dose; type: functional; details: route subcutaneous
# L1210 [38] = assay: Antitumor activity was assessed against L1210 tumors in B6D2F1 mouse by inoculation of 10e5 tumor cells through iv route and mean death of animals (treated/control) was reported at 10 mg/kg peroral dose; type: functional; details: route oral
# [39] = Antitumor activity was assessed against TLX5 tumors in CBA/CA mouse by inoculation of 2 x 10e5 tumor cells through sc route and mean death of animals (treated/control) was reported at 10 mg/kg dose; type: functional; details: route subcutaneous
# [40] = Antitumor activity was assessed against TLX5 tumors in CBA/CA mouse by inoculation of 2 x 10e5 tumor cells through sc route and number of Survivors to duration was reported at 20 mg/kg ip dose; 5/5; type: functional; details: route subcutaneous
# L1210 [41] = assay: Antitumor activity was assessed against L1210 tumors in B6D2F1 mouse by inoculation of 10e5 tumor cells through iv route and mean death of animals (treated/control) was reported at 2.5 mg/kg peroral dose; type: functional; details: route oral
# [42] = Antitumor activity was assessed against TLX5 tumors in CBA/CA mouse by inoculation of 2 x 10e5 tumor cells through sc route and mean death of animals (treated/control) was reported at 5 mg/kg dose; type: functional; details: route subcutaneous
# L1210 [43] = assay: Antitumor activity was assessed against L1210 tumors in B6D2F1 mouse by inoculation of 10e5 tumor cells through iv route and mean death of animals (treated/control) was reported at 5 mg/kg peroral dose; type: functional; details: route oral
# L1210 [44] = assay: Antitumor activity was assessed against L1210 tumors in B6D2F1 mouse by inoculation of 10e5 tumor cells through iv route and mean death of animals (treated/control) was reported at 20 mg/kg peroral dose; type: functional; details: route oral
# L1210 [45] = assay: Antitumor activity was assessed against L1210 tumors in B6D2F1 mouse by inoculation of 10e5 tumor cells through iv route and number of Survivors to duration was reported at 20 mg/kg peroral dose; 6/7; type: functional; details: route oral
# L1210 [46] = assay: Antitumor activity was assessed against L1210 tumors in B6D2F1 mouse by inoculation of 10e5 tumor cells through iv route and number of Survivors to duration was reported at 10 mg/kg peroral dose; 1/7; type: functional; details: route oral
# L1210 [47] = assay: Antitumor activity was assessed against L1210 tumors in B6D2F1 mouse by inoculation of 10e5 tumor cells through intravenous route and number of Survivors to duration was reported at 20 mg/kg peroral dose; 6/7; type: functional; details: route oral
# [48] = Antitumor activity was assessed against TLX5 tumors in CBA/CA mouse by inoculation of 2 x 10e5 tumor cells through subcutaneous route and number of Survivors to duration was reported at 40 mg/kg ip dose; 1/5; type: functional
# [49] = Antitumor activity was assessed against TLX5 tumors in CBA/CA mouse by inoculation of 2 x 10e5 tumor cells through subcutaneous route and number of Survivors to duration was reported at 20 mg/kg ip dose; 3/5; type: functional
compound,measurement,setting,value
NC(=O)c1nc(CCc2ccccc2)n2c(=O)n(CCCl)nnc12,T/C,[1],100%
same,T/C,[2],100%
same,T/C,[3],100%
O=C(NCc1ccccc1)c1ncn2c(=O)n(CCCl)nnc12,T/C,L1210 [4],100%
same,T/C,L1210 [5],130%
same,T/C,L1210 [6],183%
CS(=O)(=O)c1ncn2c(=O)n(CCCl)nnc12,T/C,L1210 [4],>310%
same,T/C,L1210 [7],217%
same,T/C,[8],>214%
same,T/C,L1210 [9],257%
same,T/C,[10],66%
same,T/C,[11],66%
same,Survivors,[12],1
same,T/C,L1210 [13],217%
same,Survivors,L1210 [14],2
CNC(=O)c1ncn2c(=O)n(CCCl)nnc12,Survivors,L1210 [15],10
same,Survivors,[16],1
same,Survivors,L1210 [17],2
same,T/C,[18],104%
same,T/C,[19],133%
same,T/C,[8],>254%
same,T/C,[20],>555%
same,T/C,L1210 [21],>215%
same,Survivors,[22],5
same,T/C,L1210 [23],>453%
same,T/C,L1210 [24],>192%
same,Survivors,L1210 [25],2
same,T/C,[26],72%
Cc1nc(C(N)=O)c2nnn(CCCl)c(=O)n12,T/C,[27],>343%
same,T/C,[28],66%
same,T/C,[29],176%
same,T/C,L1210 [30],128%
same,T/C,L1210 [31],248%
same,T/C,L1210 [32],267%
same,Survivors,[33],2
same,Survivors,[34],5
same,T/C,L1210 [35],180%
same,T/C,[36],>550%
same,T/C,[37],80%
NS(=O)(=O)c1ncn2c(=O)n(CCCl)nnc12,T/C,L1210 [38],>376%
same,T/C,[27],119%
same,T/C,[39],160%
same,Survivors,[40],5
same,T/C,L1210 [41],136%
same,T/C,[42],121%
same,T/C,L1210 [43],207%
same,T/C,[29],>476%
same,T/C,L1210 [44],>605%
same,Survivors,L1210 [45],6
same,Survivors,L1210 [46],1
CNS(=O)(=O)c1ncn2c(=O)n(CCCl)nnc12,T/C,L1210 [4],25%
same,Survivors,L1210 [47],6
same,T/C,[8],>375%
same,T/C,L1210 [9],>666%
same,T/C,[10],>203%
same,Survivors,[48],1
same,T/C,[11],68%
same,T/C,L1210 [13],283%
same,Survivors,[49],3
